Patent US12559784B2 (priority 2023, dated 2026)
Several values for one entry are separate records, joined by “and”; a condition that tells them apart may be missing. Equal values may be shown once. Read-outs that look alike come from different tables or passages of the source.

Legend:
phosphatase = assay type: biochemical, porcine
Method: Our next studies involved applying the test substance (500 μL) directly to the epidermis side of previously frozen porcine skin (Spear Products, Coopersburg, PA) that is placed in a holder that only exposes the epidermis side for 30 minutes, adding phosphate buffered saline (PBS) with added sodium azide (metabolic inhibitor that ensure no viable tissue), then aliquoting into cuvettes to read at an optical density of 300 nm. […] So, at the end of the initial studies described above, almost out of frustration, we tried to probe for released phosphatase activity using p-Nitrophenyl phosphate disodium salt (PNPP; Sigma Aldrich, St. Louis, MO) substrate solution to detect any presence of phosphatase.
Preparation • 1. Thaw 2 pieces of frozen porcine skin • a. Punch out as many skin discs and mount in holders • 2. Label cuvettes (3 for each chemical) Procedure • 1. Add 500 μL of test chemical to holder; incubate at room temperate for 30 minutes • 2. After 30 minutes, add 2 mL of PBS-Azide to both the holder containing the test chemical; forcefully pipette and re-pipette 10 times • 3. From the holder, aliquot 400 μL into 3 cuvettes; forcefully pipette and re-pipette 3 times before dispensing into cuvettes Reading Results • 1. Measure at OD300 for all cuvettes
Skin corrosion by GHS Category 1 dermal corrosive chemicals results in the disintegration of the epidermis into the dermis.

alkaline phosphatase [1] = assay type: biochemical
Method: New stocks were made the of the 1:100 alkaline phosphatase reaction reagents.
The conditions included: 1:100 dilution of alkaline phosphatase reaction reagent with two solvents (buffered saline and ethanol), dosing in 0.5 mL microcentrifuge tubes with 20 μL of chemical added to 180 μL of reaction reagent, and incubating with p-Nitrophenyl phosphate disodium salt (PNPP) substrate for 1-hour.

skin = details: rabbit, in vivo; cited from earlier work
alkaline phosphatase [2] = test: Alkaline phosphatase experiment, ninth week: microcentrifuge tubes vs glass vials; assay type: biochemical; details: ethanol alkaline phosphatase 1:100, 4 hours room temperature, 1-hour PNPP
Method: Feb. […] The test chemicals included water, acetic acid, heptanal, dimethylisopropylamine, n-Heptylamine, and N,N-Dimethylbenzylamine. We believe that when tilting the glass vial to mix by pipette/re-pipette, the alkaline phosphatase is sticking to the sides and therefore when the p-Nitrophenyl phosphate disodium salt (PNPP) is added, it immediately detects alkaline phosphatase presence and turns intensely yellow. In addition, by sticking to the side of the vial, since the volume of the test chemical added is low, the chance the test chemical interacting with the alkaline phosphatase might be less, therefore resulting in an intensely yellow enzyme reaction product. This study focused on the two stocks (one from previous experiment and a freshly made one) 1:100 concentration ethanol alkaline phosphatase reaction reagent. […] For the 4 mL vials, 30 μL of the test chemical is added to 300 μL of the alkaline phosphatase reaction reagent and incubated for 4 hours at room temperature.

porcine skin = details: R 1 and 2
Method: Our initial studies involved using fresh and frozen porcine skin “buttons”. These buttons were punched out of porcine skin (Spear Products, Cooopersburg, PA) using a […] biopsy punch tool. Three different kinds of skin buttons were prepared from fresh porcine skin, frozen porcine skin, and frozen porcine skin with the fatty layer removed. […] The next day, the tubes were taken out and vortexed and 500 μL of the solution was aliquoted into cuvettes to read at three different optical density wavelengths (OD190, OD290, OD300) to evaluate the best response.
Skin Preparation • 1. Thaw 2 pieces of frozen porcine skin • 2. Punch out buttons: 24 buttons in each tube filled with 40 mL PB S-Azide 96-well plate Preparation • 1. Plate layout for dosing:
Procedure • 1. Dose each tissue with 140 μL of test chemical • 2. […] Take out of incubator and vortex pulse 3× • 2. Aliquot 500 μL to cuvette and read results at OD190, OD290, and OD300
There were three readings done at an optical density of 190, 290, and 300 nm to evaluate the best response. […] To address the variable exposure conditions, our next studies involved placing a larger porcine skin section into a holder that exposes only the epidermis side with no potential for test chemical exposure from the backside or through the sides.

[3] = frozen porcine skin with fat layer removed

CCCCCCC=O [Heptanal]
percent of phosphatase measured (optical density compared to the naïve condition), average (phosphatase; average of two readings): 97.2%
percent of phosphatase measured (optical density compared to the naïve condition) (phosphatase; single readings): 100.0% and 94.4%
A2 - Results AVG (alkaline phosphatase [1]): 2.408
A2 - Results R1 (alkaline phosphatase [1]): 2.730
A2 - Results R3 (alkaline phosphatase [1]): 2.098
Corrosive (skin): No
in vivo GHS (skin): Cat. 2
OD405 readings, glass vials (FIG. 12B) (alkaline phosphatase [2]): 0.804 and 0.852 and 0.901
OD405 readings, microcentrifuge tubes (FIG. 12B) (alkaline phosphatase [2]): 2.360 and 2.539 and 2.690
OD190 (porcine skin; fresh porcine skin, 140 μL test chemical, >3A = outside readable range): 0.486 and 0.365
OD290 (porcine skin; fresh porcine skin): 0.170 and 0.165
OD300 (porcine skin; fresh porcine skin): 0.123
OD190 (porcine skin; [3]): 0.144 and 0.149
OD290 (porcine skin; [3]): 0.111 and 0.140
OD300 (porcine skin; [3]): 0.040 and 0.050
OD190 (porcine skin; frozen porcine skin): 0.362 and 0.371
OD290 (porcine skin; frozen porcine skin): 0.245 and 0.241
OD300 (porcine skin; frozen porcine skin): 0.154 and 0.137
